F/C=C/C(F)(F)F [trans-1,3,3,3-tetrafluoropropene]
Conditions	mass density [kg/m3]
302.78 K, 433.9 kPa, Gas, isochoric method	22.222
303.13 K, 802 kPa, Liquid, Vibrating tube method	1145.9
303.13 K, 1676 kPa, Liquid, Vibrating tube method	1151.1
303.13 K, 4747 kPa, Liquid, Vibrating tube method	1167.3
303.13 K, 7769 kPa, Liquid, Vibrating tube method	1181.3
303.13 K, 8772 kPa, Liquid, Vibrating tube method	1185.8
303.14 K, 2678 kPa, Liquid, Vibrating tube method	1156.8
303.14 K, 3716 kPa, Liquid, Vibrating tube method	1162.3
303.14 K, 5757 kPa, Liquid, Vibrating tube method	1172.2
303.14 K, 6764 kPa, Liquid, Vibrating tube method	1176.9
303.14 K, 9773 kPa, Liquid, Vibrating tube method	1190
303.14 K, 10775 kPa, Liquid, Vibrating tube method	1194.1
303.14 K, 11778 kPa, Liquid, Vibrating tube method	1197.9
303.14 K, 12794 kPa, Liquid, Vibrating tube method	1201.7
303.14 K, 13809 kPa, Liquid, Vibrating tube method	1205.3
303.14 K, 14819 kPa, Liquid, Vibrating tube method	1209.1
303.14 K, 15824 kPa, Liquid, Vibrating tube method	1212.5
303.14 K, 16838 kPa, Liquid, Vibrating tube method	1216
303.14 K, 17845 kPa, Liquid, Vibrating tube method	1219.4
303.14 K, 18856 kPa, Liquid, Vibrating tube method	1222.6
303.14 K, 19875 kPa, Liquid, Vibrating tube method	1225.8
303.14 K, 20888 kPa, Liquid, Vibrating tube method	1228.8
303.14 K, 21899 kPa, Liquid, Vibrating tube method	1232
303.14 K, 22909 kPa, Liquid, Vibrating tube method	1234.9
303.14 K, 23916 kPa, Liquid, Vibrating tube method	1238
303.14 K, 24920 kPa, Liquid, Vibrating tube method	1240.8
303.14 K, 25928 kPa, Liquid, Vibrating tube method	1243.5
303.14 K, 26942 kPa, Liquid, Vibrating tube method	1246.4
303.14 K, 27943 kPa, Liquid, Vibrating tube method	1249.1
303.14 K, 28955 kPa, Liquid, Vibrating tube method	1251.6
303.14 K, 29958 kPa, Liquid, Vibrating tube method	1254.5
303.14 K, 30966 kPa, Liquid, Vibrating tube method	1256.7
303.15 K, 31972 kPa, Liquid, Vibrating tube method	1259.5
303.15 K, 32984 kPa, Liquid, Vibrating tube method	1262
303.15 K, 33993 kPa, Liquid, Vibrating tube method	1264.4
312.59 K, 574.7 kPa, Gas, isochoric method	28.571
312.6 K, 574.7 kPa, Gas, isochoric method	28.571
312.61 K, 397.1 kPa, Gas, isochoric method	19.231
312.61 K, 397.2 kPa, Gas, isochoric method	19.231
312.72 K, 168.6 kPa, Gas, isochoric method	7.634
312.76 K, 451.9 kPa, Gas, isochoric method	21.739
312.76 K, 452 kPa, Gas, isochoric method	21.739
312.8 K, 74.3 kPa, Gas, isochoric method	3.311
312.84 K, 268.5 kPa, Gas, isochoric method	12.5
313.13 K, 630.3 kPa, Gas, isochoric method	32.258
313.13 K, 630.4 kPa, Gas, isochoric method	32.258
313.14 K, 775 kPa, Liquid, Vibrating tube method	1109.9
313.14 K, 1656 kPa, Liquid, Vibrating tube method	1116.2
313.14 K, 2657 kPa, Liquid, Vibrating tube method	1122.9
313.14 K, 3683 kPa, Liquid, Vibrating tube method	1129.4
313.14 K, 5739 kPa, Liquid, Vibrating tube method	1141.4
313.14 K, 6749 kPa, Liquid, Vibrating tube method	1146.8
313.14 K, 7763 kPa, Liquid, Vibrating tube method	1152.1
313.14 K, 8784 kPa, Liquid, Vibrating tube method	1157.1
313.14 K, 9798 kPa, Liquid, Vibrating tube method	1161.9
313.14 K, 10800 kPa, Liquid, Vibrating tube method	1166.5
313.14 K, 11816 kPa, Liquid, Vibrating tube method	1170.9
313.14 K, 12819 kPa, Liquid, Vibrating tube method	1175.2
313.14 K, 13831 kPa, Liquid, Vibrating tube method	1179.3
313.14 K, 14845 kPa, Liquid, Vibrating tube method	1183.4
313.14 K, 15848 kPa, Liquid, Vibrating tube method	1187.2
313.14 K, 16855 kPa, Liquid, Vibrating tube method	1191.1
313.14 K, 18874 kPa, Liquid, Vibrating tube method	1198.3
313.14 K, 19890 kPa, Liquid, Vibrating tube method	1201.9
313.14 K, 20909 kPa, Liquid, Vibrating tube method	1205.3
313.14 K, 21923 kPa, Liquid, Vibrating tube method	1208.7
313.14 K, 22937 kPa, Liquid, Vibrating tube method	1212
313.14 K, 23947 kPa, Liquid, Vibrating tube method	1215.2
313.14 K, 25962 kPa, Liquid, Vibrating tube method	1221.3
313.14 K, 26971 kPa, Liquid, Vibrating tube method	1224.3
313.14 K, 28984 kPa, Liquid, Vibrating tube method	1230.1
313.15 K, 4723 kPa, Liquid, Vibrating tube method	1135.7
313.15 K, 17865 kPa, Liquid, Vibrating tube method	1194.7
313.15 K, 24948 kPa, Liquid, Vibrating tube method	1218.2
313.15 K, 27973 kPa, Liquid, Vibrating tube method	1227.2
313.15 K, 30002 kPa, Liquid, Vibrating tube method	1232.9
313.15 K, 31006 kPa, Liquid, Vibrating tube method	1235.7
313.15 K, 32010 kPa, Liquid, Vibrating tube method	1238.4
313.15 K, 33010 kPa, Liquid, Vibrating tube method	1241
313.15 K, 34013 kPa, Liquid, Vibrating tube method	1243.6
323.1 K, 76.8 kPa, Gas, isochoric method	3.311
323.1 K, 278.4 kPa, Gas, isochoric method	12.346
323.1 K, 470.5 kPa, Gas, isochoric method	21.739
323.11 K, 174.6 kPa, Gas, isochoric method	7.634
323.11 K, 413.3 kPa, Gas, isochoric method	19.231
323.11 K, 413.4 kPa, Gas, isochoric method	19.231
323.11 K, 658.4 kPa, Gas, isochoric method	32.258
323.12 K, 836.8 kPa, Gas, isochoric method	43.478
323.14 K, 1009 kPa, Liquid, Vibrating tube method	1071.8
323.14 K, 1595 kPa, Liquid, Vibrating tube method	1077.1
323.14 K, 2609 kPa, Liquid, Vibrating tube method	1085.6
323.14 K, 3638 kPa, Liquid, Vibrating tube method	1093.6
323.14 K, 4686 kPa, Liquid, Vibrating tube method	1101.1
323.14 K, 5705 kPa, Liquid, Vibrating tube method	1108
323.14 K, 6730 kPa, Liquid, Vibrating tube method	1114.5
323.14 K, 7748 kPa, Liquid, Vibrating tube method	1120.7

From the NIST ThermoML archive (doi:10.1021/je300945r)
